From ChEMBL document CHEMBL1131444, “The 16,17-double bond is needed for irreversible inhibition of human cytochrome p45017alpha by abiraterone (17-(3-pyridyl)androsta-5, 16-dien-3beta-ol) and related steroidal inhibitors” (J Med Chem, 1998)

Molecular target: T1, Steroid 17-alpha-hydroxylase/17,20 lyase (Homo sapiens, UniProt P05093)
T1 sequence (P05093 whole entry): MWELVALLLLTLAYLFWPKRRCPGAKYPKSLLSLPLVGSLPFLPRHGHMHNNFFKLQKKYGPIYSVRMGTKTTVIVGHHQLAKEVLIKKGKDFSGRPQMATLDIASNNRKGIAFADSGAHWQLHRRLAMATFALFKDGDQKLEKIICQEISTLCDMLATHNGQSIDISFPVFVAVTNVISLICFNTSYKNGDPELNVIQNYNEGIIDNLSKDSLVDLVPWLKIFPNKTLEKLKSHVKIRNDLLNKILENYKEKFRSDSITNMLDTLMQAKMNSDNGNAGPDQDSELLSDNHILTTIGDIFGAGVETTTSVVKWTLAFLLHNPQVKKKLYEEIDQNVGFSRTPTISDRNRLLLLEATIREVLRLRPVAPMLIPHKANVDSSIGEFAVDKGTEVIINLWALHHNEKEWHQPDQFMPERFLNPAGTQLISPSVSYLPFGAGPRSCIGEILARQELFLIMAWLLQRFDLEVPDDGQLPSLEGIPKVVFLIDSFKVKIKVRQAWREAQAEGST
Experiment: Inhibition of human progesterone 17-alpha-hydroxylase.

Row | Structure (SMILES) | IC50 [nM]
1 | C[C@]12CC[C@H](O)C[C@@H]1CC[C@@H]1[C@@H]2CC[C@]2(C)[C@@H](c3cccnc3)CC[C@@H]12 | 74
2 | C[C@]12CCC(=O)C=C1CCC1C2CC[C@]2(C)C(c3cccnc3)=CCC12 (stereo not given in full) | 3
3 | C[C@]12CCC3C(CC=C4C[C@@H](O)CC[C@@]43C)C1CCC2c1ccncc1 (single isomer, unassigned) | 27

Continued, values first:

Row | IC50 [nM] | Structure (SMILES)
4 | 5 | C[C@]12CC[C@H](O)C[C@@H]1CC[C@@H]1[C@@H]2CC[C@]2(C)C(c3cccnc3)CC[C@@H]12 (stereo not given in full)
5 | 260 | C[C@]12CC[C@H](O)C[C@@H]1CC[C@@H]1[C@@H]2CC[C@@]2(C)[C@H]1C[C@H]1O[C@]12c1cccnc1
